Experimental data published in patent US5710149A, “Piperazine derivatives as 5-ht antagonists” (John Wyeth & Brother, Ltd., priority 1991, dated 1998).

Columns and labels:
5-HT1A receptor [1] = target: T1, 5-HT1A receptor (Rattus norvegicus, UniProt P19327); assay: 5-HT1A receptor binding activity in rat hippocampal membrane homogenate
T1 construct: rat hippocampal membrane homogenated; from tissue; host or cells: rat hippocampus, membrane homogenate
T1 sequence (P19327 1-422): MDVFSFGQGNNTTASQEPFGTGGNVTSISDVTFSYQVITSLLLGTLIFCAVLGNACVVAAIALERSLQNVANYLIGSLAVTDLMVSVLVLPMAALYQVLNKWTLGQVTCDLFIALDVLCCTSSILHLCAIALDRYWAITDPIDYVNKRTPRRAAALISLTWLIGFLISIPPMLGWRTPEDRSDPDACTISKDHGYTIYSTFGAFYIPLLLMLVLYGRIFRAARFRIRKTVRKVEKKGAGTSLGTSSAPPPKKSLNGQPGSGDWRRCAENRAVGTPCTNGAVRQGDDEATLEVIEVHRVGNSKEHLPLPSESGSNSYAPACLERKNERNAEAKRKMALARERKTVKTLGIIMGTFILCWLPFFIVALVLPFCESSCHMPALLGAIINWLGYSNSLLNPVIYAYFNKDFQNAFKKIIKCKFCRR
Description: The compounds of the invention are tested for 5-HT1A receptor binding activity in rat hippocampal membrane homogenated by the method of B. S. Alexander and M. D. Wood, J Pharm Pharmacol, 1988, 40, 888-891.

5-HT1A receptor [2] = target: T2, 5-HT1A receptor (Cavia porcellus, UniProt A0A286Y074); assay: 5-HT1A receptor antagonism: antagonism of 5-carboxamido-tryptamine in the guinea-pig ileum in vitro; settings: read-out: pA2, antagonism of 5-carboxamido-tryptamine (converted)
T2 construct: guinea-pig ileum in vitro; from tissue; host or cells: guinea-pig ileum, isolated tissue
T2 sequence (A0A286Y074 1-421): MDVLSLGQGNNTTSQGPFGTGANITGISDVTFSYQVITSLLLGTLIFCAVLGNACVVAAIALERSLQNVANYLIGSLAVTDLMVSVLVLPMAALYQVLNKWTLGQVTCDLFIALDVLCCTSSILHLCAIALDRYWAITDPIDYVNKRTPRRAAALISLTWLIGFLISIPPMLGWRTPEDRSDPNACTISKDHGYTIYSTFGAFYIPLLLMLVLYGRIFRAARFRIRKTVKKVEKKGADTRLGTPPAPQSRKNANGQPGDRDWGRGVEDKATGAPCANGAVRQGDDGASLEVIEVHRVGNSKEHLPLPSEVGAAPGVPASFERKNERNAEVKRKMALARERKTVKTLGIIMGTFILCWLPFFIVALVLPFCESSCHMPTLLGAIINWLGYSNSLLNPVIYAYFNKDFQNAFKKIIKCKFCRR
Description: The compounds are tested for 5-HT1A receptor antagonism activity in a test involving the antagonism of 5-carboxamido-tryptamine in the guinea-pig ileum in vitro (based upon the procedure of Fozard et al, Br. J. Pharmac., 1985, 86, 601P).

IC50 (5-HT1A receptor [1]): 0.6 nM
Kb (5-HT1A receptor [2]): 0.398 nM
SMILES: O=C(C(CCN1CCN(c2cccc3c2OCCO3)CC1)c1ccccc1)N1CCCCCC1 (centres unmarked) [Example 8, 2,3,4,5,6,7-Hexahydro-1-{4-[1-[4-(2,3-dihydro-1,4-benzodioxin-5-yl)piperazinyl]]-2-phenylbutyryl}-1H-azepine]
